# From BindingDB's records for doi:10.1021/jf103164r (Rutgers University, 2011)
# Target: T1, Dihydrofolate reductase (Homo sapiens, UniProt P00374)
# T1 sequence (P00374 whole entry): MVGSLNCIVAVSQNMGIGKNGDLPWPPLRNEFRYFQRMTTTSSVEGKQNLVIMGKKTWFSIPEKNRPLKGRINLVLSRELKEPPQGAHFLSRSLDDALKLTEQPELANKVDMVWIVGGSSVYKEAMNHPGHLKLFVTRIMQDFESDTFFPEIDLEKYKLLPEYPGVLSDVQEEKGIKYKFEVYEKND
# Assay: Inhibition of human DHFR
row,IC50 [µM],Compound
1,312,Nc1nc2ccc(OC(F)(F)F)cc2s1 [SMR000058231]
2,1040,CS(=O)(=O)c1ccc2nc(N)sc2c1 [6-(methylsulfonyl)benzo[d]thiazol-2-amine]
3,300,"Nc1nnc(CCC(=O)c2cccs2)s1 [3-(5-Amino-[1,3,4]thiadiazol-2-yl)-1-(thiophen-2-yl)propan-1-one]"
